Patent US20230322770A1, “SUBSTITUTED HETEROARYL COMPOUNDS USEFUL AS INHIBITORS OF TLR9” (BRISTOL-MYERS SQUIBB COMPANY, priority 2020, published 2023)

Columns and labels:
Format in all cases: cell-based
human TLR8 = target: T1, human TLR8 (Homo sapiens, UniProt Q9NR97); assay: TLR8 inhibition reporter assay (HEK-Blue cells, SEAP reporter); details: HEK-Blue cells overexpressing human TLR8; stimulated with R848 15.9 μM; SEAP after 22 hour incubation
T1 construct: host or cells: HEK-Blue cells (HEK293-derived reporter line)
T1 sequence (Q9NR97 27-1041): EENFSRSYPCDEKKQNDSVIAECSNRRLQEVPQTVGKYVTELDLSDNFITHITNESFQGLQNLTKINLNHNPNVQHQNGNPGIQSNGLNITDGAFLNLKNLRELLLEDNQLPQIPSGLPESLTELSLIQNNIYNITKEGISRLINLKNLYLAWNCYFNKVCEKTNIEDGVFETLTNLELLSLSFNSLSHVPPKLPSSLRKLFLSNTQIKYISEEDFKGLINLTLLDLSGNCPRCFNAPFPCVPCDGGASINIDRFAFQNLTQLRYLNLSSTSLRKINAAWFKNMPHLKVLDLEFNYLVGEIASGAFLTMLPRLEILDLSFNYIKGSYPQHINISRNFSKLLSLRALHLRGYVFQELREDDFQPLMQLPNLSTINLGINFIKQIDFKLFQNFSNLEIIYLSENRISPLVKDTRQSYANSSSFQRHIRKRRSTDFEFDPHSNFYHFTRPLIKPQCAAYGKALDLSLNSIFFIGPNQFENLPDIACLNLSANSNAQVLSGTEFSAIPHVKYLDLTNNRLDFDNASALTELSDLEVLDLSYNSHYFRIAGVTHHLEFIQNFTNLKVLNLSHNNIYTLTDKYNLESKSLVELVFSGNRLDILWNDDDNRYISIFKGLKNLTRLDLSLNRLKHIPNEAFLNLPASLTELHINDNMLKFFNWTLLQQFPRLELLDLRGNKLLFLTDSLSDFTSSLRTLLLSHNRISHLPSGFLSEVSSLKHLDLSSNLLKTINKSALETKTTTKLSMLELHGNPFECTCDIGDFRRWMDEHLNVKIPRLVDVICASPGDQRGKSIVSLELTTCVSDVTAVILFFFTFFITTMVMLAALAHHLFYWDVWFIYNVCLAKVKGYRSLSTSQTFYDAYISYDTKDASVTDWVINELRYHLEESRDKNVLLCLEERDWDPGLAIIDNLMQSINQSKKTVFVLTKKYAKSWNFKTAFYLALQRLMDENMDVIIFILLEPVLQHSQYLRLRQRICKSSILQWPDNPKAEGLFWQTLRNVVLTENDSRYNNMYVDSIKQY
Description: (§1) TLR7/8/9 Inhibition Reporter Assays
(§2) HEK-Blue™-cells (Invivogen) overexpressing human TLR7, TLR8 or TLR9 receptors were used for screening inhibitors of these receptors using an inducible SEAP (secreted embryonic alkaline phosphatase) reporter gene under the control of the IFN-β minimal promoter fused to five NF-κB and AP-1-binding sites. Briefly, cells are seeded into Greiner 384 well plates (15000 cells per well for TLR7, 20,000 for TLR8 and 25,000 for TLR9) and then treated with test compounds in DMSO to yield a final dose response concentration range of 0.05 nM-50 μM. After a 30 minute compound pre-treatment at room temperature, the cells are then stimulated with a TLR7 ligand (gardiquimod at a final concentration of 7.5 μM), TLR8 ligand (R848 at a final concentration of 15.9 μM) or TLR9 ligand (ODN2006 at a final concentration of 5 nM) to activate NF-κB and AP-1 which induce the production of SEAP. After a 22 hour incubation at 37° C., 5% CO2, SEAP levels are determined with the addition of HEK-Blue™ Detection reagent (Invivogen), a cell culture medium that allows for detection of SEAP, according to manufacturer's specifications. The percent inhibition is determined as the % reduction in the HEK-Blue signal present in wells treated with agonist plus DMSO alone compared to wells treated with a known inhibitor.

human TLR7 = target: T2, human TLR7 (Homo sapiens, UniProt Q9NYK1); assay: TLR7 inhibition reporter assay (HEK-Blue cells, SEAP reporter); details: HEK-Blue cells overexpressing human TLR7; stimulated with gardiquimod 7.5 μM; SEAP after 22 hour incubation
T2 construct: host or cells: HEK-Blue cells (HEK293-derived reporter line)
T2 sequence (Q9NYK1 27-1049): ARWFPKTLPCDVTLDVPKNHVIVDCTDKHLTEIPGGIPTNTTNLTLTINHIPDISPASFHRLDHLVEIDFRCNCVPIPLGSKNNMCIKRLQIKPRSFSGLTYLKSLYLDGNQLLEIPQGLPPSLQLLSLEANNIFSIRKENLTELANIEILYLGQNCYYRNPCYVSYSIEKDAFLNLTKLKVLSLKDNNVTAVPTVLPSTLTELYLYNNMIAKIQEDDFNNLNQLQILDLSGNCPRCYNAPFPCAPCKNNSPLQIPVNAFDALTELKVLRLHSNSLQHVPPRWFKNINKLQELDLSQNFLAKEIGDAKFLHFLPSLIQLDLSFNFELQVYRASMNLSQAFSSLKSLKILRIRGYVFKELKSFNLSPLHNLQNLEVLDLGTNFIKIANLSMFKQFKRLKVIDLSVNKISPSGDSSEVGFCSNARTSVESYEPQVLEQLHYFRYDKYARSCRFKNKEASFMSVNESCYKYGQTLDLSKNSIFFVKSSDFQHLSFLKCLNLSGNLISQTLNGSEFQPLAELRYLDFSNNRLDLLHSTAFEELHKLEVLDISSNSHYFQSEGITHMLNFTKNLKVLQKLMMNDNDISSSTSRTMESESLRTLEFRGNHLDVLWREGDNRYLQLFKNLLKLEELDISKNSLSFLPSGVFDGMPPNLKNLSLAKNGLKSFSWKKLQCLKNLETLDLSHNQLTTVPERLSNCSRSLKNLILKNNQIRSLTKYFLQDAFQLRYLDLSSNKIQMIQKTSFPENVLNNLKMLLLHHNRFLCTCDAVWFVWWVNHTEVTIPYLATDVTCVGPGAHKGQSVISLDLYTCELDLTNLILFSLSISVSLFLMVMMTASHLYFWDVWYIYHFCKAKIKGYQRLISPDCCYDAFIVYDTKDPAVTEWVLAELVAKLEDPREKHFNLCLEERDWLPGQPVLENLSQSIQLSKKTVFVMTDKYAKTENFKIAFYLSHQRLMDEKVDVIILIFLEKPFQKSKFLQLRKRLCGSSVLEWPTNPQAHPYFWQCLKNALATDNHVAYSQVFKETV
Description: as §1, §2

human TLR9 = target: T3, human TLR9 (Homo sapiens, UniProt Q9NR96); assay: TLR9 inhibition reporter assay (HEK-Blue cells, SEAP reporter); details: HEK-Blue cells overexpressing human TLR9; stimulated with ODN2006 5 nM; SEAP after 22 hour incubation
T3 construct: host or cells: HEK-Blue cells (HEK293-derived reporter line)
T3 sequence (Q9NR96 26-1032): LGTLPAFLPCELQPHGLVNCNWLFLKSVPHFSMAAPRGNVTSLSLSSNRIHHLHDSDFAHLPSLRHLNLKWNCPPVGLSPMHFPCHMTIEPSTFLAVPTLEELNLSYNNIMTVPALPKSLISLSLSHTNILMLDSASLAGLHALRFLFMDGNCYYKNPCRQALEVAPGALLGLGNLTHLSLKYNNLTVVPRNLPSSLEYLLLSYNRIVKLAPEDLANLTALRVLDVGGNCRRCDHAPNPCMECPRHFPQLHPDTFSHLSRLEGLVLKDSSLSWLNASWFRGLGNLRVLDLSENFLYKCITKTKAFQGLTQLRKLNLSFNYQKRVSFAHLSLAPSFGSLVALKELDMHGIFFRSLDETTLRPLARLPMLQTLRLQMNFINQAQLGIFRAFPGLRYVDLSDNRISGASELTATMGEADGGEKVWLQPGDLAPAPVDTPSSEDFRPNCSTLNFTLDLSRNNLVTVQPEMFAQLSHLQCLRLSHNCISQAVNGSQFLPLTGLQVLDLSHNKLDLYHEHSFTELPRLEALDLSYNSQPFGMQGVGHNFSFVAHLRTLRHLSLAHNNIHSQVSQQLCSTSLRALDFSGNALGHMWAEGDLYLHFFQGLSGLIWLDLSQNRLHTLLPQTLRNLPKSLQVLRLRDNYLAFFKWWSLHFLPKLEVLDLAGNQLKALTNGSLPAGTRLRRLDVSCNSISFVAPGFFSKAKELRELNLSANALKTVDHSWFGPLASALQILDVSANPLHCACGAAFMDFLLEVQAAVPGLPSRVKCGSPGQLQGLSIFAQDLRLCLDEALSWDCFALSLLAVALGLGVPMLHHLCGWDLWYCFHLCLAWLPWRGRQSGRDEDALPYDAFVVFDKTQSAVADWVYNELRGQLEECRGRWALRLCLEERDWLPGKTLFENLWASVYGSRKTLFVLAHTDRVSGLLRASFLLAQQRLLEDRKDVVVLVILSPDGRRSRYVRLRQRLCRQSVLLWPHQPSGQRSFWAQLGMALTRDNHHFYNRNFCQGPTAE
Description: as §1, §2

Row | SMILES | IC50 (human TLR8) | IC50 (human TLR7) | IC50 (human TLR9)
1 | CC(C)N1C2CCC1CN(c1ccc(-c3cnc4cc(-c5ccc(S(C)(=O)=O)cc5F)n(C)c4c3)cc1)C2 [Example 43] | 7800 nM | > 50000 nM | 292 nM
2 | COc1ccc(-c2cc3ncc(-c4ccc(N5CCN(C(C)C)CC5)cc4)cc3n2C)cc1C#N [Example 39] | > 25000 nM | > 25000 nM | 101 nM
3 | CC(C)N1CCN(c2ccc(-c3cnc4cc(-c5ccc(S(C)(=O)=O)cc5F)n(C)c4c3)cc2)CC1 [Example 41] | 1600 nM | 10000 nM | 157 nM
4 | COc1ccc(-c2cc3ccc(-c4ccc(N5CCN(C(C)C)CC5)cc4)nc3n2C)cc1OC [Example 7, 2-(3,4-Dimethoxyphenyl)-6-(4-(4-isopropylpiperazin-1-yl)phenyl)-1-methyl-1H-pyrrolo[2,3-b]pyridine] | ≥ 50000 nM | ≥ 50000 nM | 4580 nM
5 | CC(C)CN1[C@@H]2CC[C@H]1C[C@@H](N1CCC(c3cnc4cc(-c5ccc(S(=O)(=O)C6CC6)cc5)n(C)c4c3)CC1)C2 [Example 37, 2-(4-cyclopropylsulfonylphenyl)-1-methyl-6-[1-[rac-(1S,5R)-8-isobutyl-8-azabicyclo[3.2.1]octan-3-yl]-4-piperidyl]pyrrolo[3,2-b]pyridine] | > 50000 nM | 1100 nM | 410 nM
6 | Cn1c(-c2ccc(S(C)(=O)=O)cc2)cc2ncc(-c3ccc(CN4CCN(CCC(C)(C)O)CC4)cc3)cc21 [Example 19, 2-Methyl-4-(4-(4-(1-methyl-2-(4-(methylsulfonyl)phenyl)-1H-pyrrolo[3,2-b]pyridin-6-yl)benzyl)piperazin-1-yl)butan-2-ol] | 4300 nM | 7900 nM | 663 nM
7 | CC(C)N1CCN(c2ccc(-c3cnc4cc(-c5cccc(S(=O)(=O)N(C)C)c5)n(C)c4c3)cc2)CC1 [Example 40] | 2100 nM | 8100 nM | 76 nM
8 | CC(C)CN1[C@@H]2CC[C@H]1CC(N1CCC(c3cnc4cc(-c5ccc(S(C)(=O)=O)cc5)n(C)c4c3)CC1)C2 (stereo partly drawn) [Example 36] | > 50000 nM | 10500 nM | 22 nM
9 | COc1cc(-c2cc3ncc(-c4ccc(N5CCN(C(C)C)CC5)cc4)cc3n2C)ccc1C#N [Example 38, 4-[6-[4-(4-isopropylpiperazin-1-yl)phenyl]-1-methyl-pyrrolo[3,2-b]pyridin-2-yl]-2-methoxy-benzonitrile] | > 25000 nM | > 25000 nM | 505 nM

Other lines, results leading:

Row | IC50 (human TLR8) | IC50 (human TLR7) | IC50 (human TLR9) | SMILES
10 | 2400 nM | 2000 nM | 171 nM | Cn1c(-c2ccc(S(C)(=O)=O)cc2)cc2ncc(-c3ccc(N4CCNCC4)cc3)cc21 [Example 20, 1-Methyl-2-(4-(methylsulfonyl)phenyl)-6-(4-(piperazin-1-yl)phenyl)-1H-pyrrolo[3,2-b]pyridine]
11 | > 50000 nM | > 50000 nM | 244 nM | CC(C)N1[C@H](C)CN(c2ccc(-c3cnc4cc(-c5ccc(S(C)(=O)=O)cc5)n(C)c4c3)cc2)C[C@@H]1C [Example 34]
12 | 7600 nM | 2700 nM | 139 nM | CC(C)N1CCN(c2ccc(-c3cnc4cc(-c5ccc(S(C)(=O)=O)cc5)n(C)c4c3)cc2)CC1 [Example 2, 6-(4-(4-Isopropylpiperazin-1-yl)phenyl)-1-methyl-2-(4-(methylsulfonyl)phenyl)-1H-pyrrolo[3,2-b]pyridine]
13 | 23200 nM | > 50000 nM | 69 nM | CC(C)N1CCN(Cc2ccc(-c3cnc4cc(-c5ccc(S(C)(=O)=O)cc5)n(C)c4c3)cc2)CC1 [Example 23]
